PubChem BioAssay (NCI)
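Where inhibition never reached the appropriate level, the endpoint shown equals the highest concentration tested. Otherwise, values were interpolated linearly from a five-concentration, 48-hour dose response in 96-well plates. Abbreviation: GI50, concentration required for 50% inhibition of growth. TGI: concentration producing complete growth inhibition.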

Columns and labels:
Assay in all cases: NCI anticancer screen, dose series, 48 h
MOLT-4 leukemia = tested on: MOLT-4 leukemia
MDA-MB-231 breast = tested on: MDA-MB-231 breast
IGROV1 ovarian = tested on: IGROV1 ovarian
SF-295 CNS = tested on: SF-295 CNS
HT29 colon = tested on: HT29 colon
KM12 colon = tested on: KM12 colon
DU-145 prostate = tested on: DU-145 prostate
OVCAR-8 ovarian = tested on: OVCAR-8 ovarian
UACC-62 melanoma = tested on: UACC-62 melanoma
MDA-N = tested on: MDA-N

Structure (SMILES)	TGI (MOLT-4 leukemia) [µM]	TGI (MDA-MB-231 breast) [µM]	TGI (IGROV1 ovarian) [µM]	TGI (SF-295 CNS) [µM]	TGI (HT29 colon) [µM]	TGI (KM12 colon) [µM]	TGI (DU-145 prostate) [µM]	TGI (OVCAR-8 ovarian) [µM]	TGI (UACC-62 melanoma) [µM]	TGI (MDA-N) [µM]	GI50 (MOLT-4 leukemia) [µM]	GI50 (MDA-MB-231 breast) [µM]	GI50 (IGROV1 ovarian) [µM]	GI50 (SF-295 CNS) [µM]	GI50 (HT29 colon) [µM]	GI50 (KM12 colon) [µM]	GI50 (DU-145 prostate) [µM]	GI50 (OVCAR-8 ovarian) [µM]	GI50 (UACC-62 melanoma) [µM]
Cc1ccc(SC[C@@]2(C(F)F)NC(=O)NC2=O)cc1	> 100	> 100	> 100	> 100	> 100	> 100	> 100	> 100	> 100	–	–	–	–	–	–	–	–	–	–
Cc1ccc(S(=O)(=O)c2ccc([N+](=O)[O-])o2)cc1	> 100	4.78	3.37	43.9	3.2	–	8.58	1.82	6.17	–	–	–	–	–	–	–	–	–	–
COc1cc2c(cc1C)NC(=O)/C2=C\c1ccncc1	–	–	6.94	19.1	> 100	12.5	53.6	5.92	21.1	–	–	–	–	–	–	–	–	–	–
CC(C)(C)c1cc(C(=O)/C=C/c2ccn[nH]2)cc(C(C)(C)C)c1O	10.1	3.97	3.97	28.1	6.59	5.35	7.52	6.02	8.37	–	–	–	–	–	–	–	–	–	–
CCN1CCCC(Nc2cc(C)nc(/N=C(/N)Nc3ccc(Cl)c(Cl)c3)n2)C1 (centres undefined)	2.42	3.84	3.06	2.41	15.7	3.46	15.3	–	3.31	3.16	–	–	–	–	–	–	–	–	–
CC(=O)Nc1ccc(C(=O)N2N=C(C)/C(=C/c3cccc([N+](=O)[O-])c3)C2=O)cc1	> 100	–	–	> 100	> 100	> 100	–	> 100	–	–	–	–	–	–	–	–	–	–	–
CCC(=O)NC(OCC1(CC)COC1)(C(F)(F)F)C(F)(F)F	> 100	> 100	–	–	> 100	> 100	> 100	–	> 100	> 100	–	–	–	–	–	–	–	–	–
Oc1ccc(Cl)cc1C1=N/C(=N\C/N=C2\N=C(c3cc(Cl)ccc3O)CC(c3ccccc3)N2)NC(c2ccccc2)C1 (centres undefined)	–	> 100	> 100	> 100	> 100	> 100	> 100	> 100	> 100	> 100	–	–	–	–	–	–	–	–	–
C/C=C/[C@H]1O[C@@](O)([C@@H](C)[C@H](O)[C@H](C)[C@H]2OC(=O)/C(OC)=C/C(C)=C/[C@@H](C)[C@@H](O)[C@@H](CC)[C@@H](O)[C@H](C)C/C(C)=C/C=C/[C@@H]2OC)C[C@H](OC2CC(O)C(OC(N)=O)C(C)O2)[C@@H]1C (some centres undefined)	–	22.7	20.9	0.893	1.59	17.4	21.6	21.2	13.2	–	–	–	–	–	–	–	–	–	–
CC(C)=Nn1cnc(C(=N)C#N)c1N	> 100	–	> 100	> 100	> 100	–	> 100	> 100	> 100	> 100	–	–	–	–	–	–	–	–	–
CN1Cc2c(nc(-c3ccc(Br)cc3)c[n+]2[O-])N(C)C1	> 100	–	> 100	> 100	> 100	> 100	–	> 100	–	–	–	–	–	–	–	–	–	–	–
CC1=NN(C(=O)c2ccc(Cl)cc2)C(=O)/C1=C/c1ccc(Cl)cc1	> 100	–	> 100	> 100	> 100	> 100	–	> 100	> 100	–	–	–	–	–	–	–	–	–	–
COc1nc(OC)nc(-c2cccc(F)c2)n1	> 100	30	31.8	30	57.9	31.7	26.8	69.2	22	–	–	–	–	–	–	–	–	–	–
Nc1ccc(C(=O)NN2C(=O)C(Cl)C2c2cccc(O)c2)cc1 (centres undefined)	41.1	–	28.6	35.2	35.2	22.5	–	54.4	32	–	–	–	–	–	–	–	–	–	–
O=S1(=O)C(c2ccccc2)=C(O)c2ccccc21	> 100	> 100	> 100	> 100	> 100	> 100	> 100	> 100	> 100	–	–	–	–	–	–	–	–	–	–
C[C@@H]1CC[C@@H](C)[C@](C)(CCc2ccoc2)C/C=C\C=C/1C(=O)O	> 50	> 50	> 50	> 50	> 50	> 50	–	> 50	> 50	> 50	–	–	–	–	–	–	–	–	–
Cc1ccnc(NC(=S)Nc2cccc(Cl)c2)c1	> 100	–	> 100	> 100	> 100	> 100	> 100	> 100	> 100	–	–	–	–	–	–	–	–	–	–
CC(=O)c1ccc(N2CCN(C3=CC(=O)c4c(O)ccc(O)c4C3=O)CC2)cc1	> 100	94.8	> 100	> 100	> 100	> 100	> 100	> 100	> 100	–	–	–	–	–	–	–	–	–	–

Structure (SMILES)	TGI (MOLT-4 leukemia) [µM]	TGI (MDA-MB-231 breast) [µM]	TGI (IGROV1 ovarian) [µM]	TGI (SF-295 CNS) [µM]	TGI (HT29 colon) [µM]	TGI (KM12 colon) [µM]	TGI (DU-145 prostate) [µM]	TGI (OVCAR-8 ovarian) [µM]	TGI (UACC-62 melanoma) [µM]	TGI (MDA-N) [µM]	GI50 (MOLT-4 leukemia) [µM]	GI50 (MDA-MB-231 breast) [µM]	GI50 (IGROV1 ovarian) [µM]	GI50 (SF-295 CNS) [µM]	GI50 (HT29 colon) [µM]	GI50 (KM12 colon) [µM]	GI50 (DU-145 prostate) [µM]	GI50 (OVCAR-8 ovarian) [µM]	GI50 (UACC-62 melanoma) [µM]
Cc1occ2c1C(=O)CC1C2[C@@H](O)CC2C(C)(C)CCC[C@]12C (some centres undefined)	> 100	–	> 100	> 100	> 100	–	–	> 100	> 100	–	–	–	–	–	–	–	–	–	–
Cc1cc(S(=O)(=O)Nc2nc3ccccc3n2-c2ccccc2)c(S)cc1Cl	> 100	> 100	> 100	> 100	–	> 100	> 100	> 100	> 100	> 100	–	–	–	–	–	–	–	–	–
CN(C)C(=O)C(F)(F)C(c1ccc(Br)cc1)C1C(=O)N(C)C(=O)N(C)C1=O (centres undefined)	–	> 100	–	> 100	–	> 100	> 100	–	> 100	–	–	–	–	–	–	–	–	–	–
COc1cc(OC)c2c(O)c(S(=O)(=O)c3ccc(C)cc3)c(=O)oc2c1	> 100	> 100	> 100	> 100	> 100	> 100	> 100	> 100	> 100	–	–	–	–	–	–	–	–	–	–
COC(=O)C1=C(C)N(NC(=O)c2ccccc2)C2(O)CCCC(=O)C12C (centres undefined)	–	–	> 100	> 100	> 100	> 100	–	> 100	> 100	–	–	–	–	–	–	–	–	–	–
C/C(=C\Cc1cc(O)ccc1O)CCc1c(C)c(O)c(O)c(C=O)c1C	> 100	–	41.3	91.5	64.8	44.3	–	47	–	–	–	–	–	–	–	–	–	–	–
CN(/N=N/c1nc[nH]c1C(N)=O)C1CCCCC1	> 100	–	> 100	> 100	> 100	> 100	–	> 100	> 100	–	–	–	–	–	–	–	–	–	–
CC(C)(C)OC(=O)NCC(=O)NC1C/C(=N\O)c2sccc21 (centres undefined)	> 100	> 100	> 100	> 100	> 100	–	> 100	> 100	> 100	> 100	–	–	–	–	–	–	–	–	–
Cc1nn(C)c2nc3ccc(Cl)cc3c(-c3ccccc3)c12	> 100	> 100	–	> 100	> 100	> 100	> 100	> 100	> 100	> 100	–	–	–	–	–	–	–	–	–
C#CCSc1nc(N)c2ncn(C3OC(COP(=O)(O)O)C(O)C3O)c2n1 (centres undefined)	> 239	–	> 239	> 239	> 239	> 239	–	> 239	> 239	–	–	–	–	–	–	–	–	–	–
CC(=O)Nc1ccc(C(=O)NN2C(=O)C(Cl)C2c2ccc(O)cc2)cc1 (centres undefined)	> 100	–	> 100	> 100	> 100	–	–	> 100	> 100	–	–	–	–	–	–	–	–	–	–
CCCCc1c2c(nc3c1CCc1cc4cc5c(nc4nc1-3)-c1nc3c(c(CCCC)c1CC5)CCC/C3=C\c1ccccc1)/C(=C/c1ccccc1)CCC2	> 100	–	> 100	> 100	> 100	> 100	–	> 100	> 100	–	–	–	–	–	–	–	–	–	–
COc1cc(OC)cc(-c2n/c(=C\c3c(O)[nH]c4ccc(Cl)cc34)cc3c2=Nc2ccccc2-3)c1	4.74	13.4	10.1	6.11	6.22	14.1	6.88	15.5	35.2	–	2.18	2.84	3.46	2.32	2.72	3.95	2.91	3.51	16.9
Cc1c(C#N)c2nnn(-c3ccccc3)c(=O)n2c1-c1ccccc1	30.5	> 100	> 100	8.53	–	29.1	8.45	> 100	> 100	–	–	–	–	–	–	–	–	–	–
CNC(=S)N/N=C(\C)c1nc2ncccc2[nH]1	> 100	> 100	> 100	> 100	> 100	> 100	> 100	> 100	–	> 100	–	–	–	–	–	–	–	–	–
C=CCC1(CC)C(=O)NC(=O)NC1=O	> 100	–	> 100	–	–	> 100	–	> 100	> 100	–	–	–	–	–	–	–	–	–	–
COc1cccc(NC(=O)CC(=O)NNCC(=O)Nc2nnc(-c3ccc(N(CCC#N)S(=O)(=O)c4ccccc4)cc3)s2)c1	> 100	–	> 100	> 100	–	> 100	–	> 100	> 100	–	–	–	–	–	–	–	–	–	–
O/N=C1/C2CC3CC1(c1ccccc1)CC(/C3=N/O)/C2=N\O (centres undefined)	> 100	> 100	–	> 100	> 100	> 100	> 100	> 100	> 100	> 100	–	–	–	–	–	–	–	–	–
